Test results published in patent US10975084B2, “KDM5 inhibitors” (Merck Sharp & Dohme Corp., priority 2016, dated 2021).
pIC50: −log10 of the molar value.

Each compound was assayed against KDM5B (Homo sapiens (Human), UniProt Q9UGL1) (assay: KDM5B TR-FRET Enzyme Activity Assay). Settings: LANCE TR-FRET; 5 nM full-length recombinant KDM5B; ten point titration 100000 nM to 5.08 nM.
Type: biochemical
Description: KDM5B TR-FRET Enzyme Activity Assay
KDM5B enzymatic activity was determined with the LANCE (Lanthanide Chelate Excite) TR-FRET (Time-resolved fluorescence resonance energy transfer) assay. […] To each well of a white Greiner 1536 Lumitrac 1536 well-plate, 50 nL of compound (100 fold dilution in final assay volume of 5 μL) was dispensed, followed by the addition of 4 μL of 1× assay buffer (50 mM Hepes 7.3, 0.5 mM TCEP, 0.005% Brij-35, 0.02% BSA, 50 μM Na-L-Ascorbate and 2 μM AmFe(II)Sulfate) containing 5 nM of Full-length KDM5B enzyme (recombinant protein from baculovirus-transfected Sf21 cells: full-length KDM5B; MW=176.825 kDa). Following a 30 minutes compound and enzyme incubation in a humidified chamber, each reaction was initiated by the addition of 1 μL 1× assay buffer containing […] biotinylated H3K4Me3 peptide, and 500 nM α-ketoglutarate. The final reaction in each well of 5 μL consists of 5 nM KDM5B, 500 nM biotinylated-peptide, and 500 nM α-ketoglutarate. De-methylation reactions were allowed to proceed for 60 minutes. Reactions were immediately quenched by the addition of 5 uL of 2× Lance Detection Buffer (PerkinElmer) with 0.5 mM EDTA and 2 nM of Eu-anti-H3K4Me1-2 antibody, and 30 nM of Streptavidin-conjugated Dylight 650 detection reagents. After 60 minutes incubation with detection reagents, reaction plates were read on a PerkinElmer EnVision plate reader using standard TR-FRET protocol. Briefly, excitation of donor molecules (Eu-chelate-anti-H3K4Me1-2-antibody) with a laser light source at 337 nm produces energy that can be transferred to Dylight-650 acceptor molecules if this donor:acceptor pair is within close proximity. Fluorescence intensity at both 665 nm (acceptor) and 615 nm (donor) are measured and a TR-FRET ratio calculated for each well (acceptor intensity/donor intensity). IC50 values were determined by 4 parameter robust fit of TR-FRET ratio values vs. (Log 10) compound concentrations.

Sequence of KDM5B (Q9UGL1 whole entry): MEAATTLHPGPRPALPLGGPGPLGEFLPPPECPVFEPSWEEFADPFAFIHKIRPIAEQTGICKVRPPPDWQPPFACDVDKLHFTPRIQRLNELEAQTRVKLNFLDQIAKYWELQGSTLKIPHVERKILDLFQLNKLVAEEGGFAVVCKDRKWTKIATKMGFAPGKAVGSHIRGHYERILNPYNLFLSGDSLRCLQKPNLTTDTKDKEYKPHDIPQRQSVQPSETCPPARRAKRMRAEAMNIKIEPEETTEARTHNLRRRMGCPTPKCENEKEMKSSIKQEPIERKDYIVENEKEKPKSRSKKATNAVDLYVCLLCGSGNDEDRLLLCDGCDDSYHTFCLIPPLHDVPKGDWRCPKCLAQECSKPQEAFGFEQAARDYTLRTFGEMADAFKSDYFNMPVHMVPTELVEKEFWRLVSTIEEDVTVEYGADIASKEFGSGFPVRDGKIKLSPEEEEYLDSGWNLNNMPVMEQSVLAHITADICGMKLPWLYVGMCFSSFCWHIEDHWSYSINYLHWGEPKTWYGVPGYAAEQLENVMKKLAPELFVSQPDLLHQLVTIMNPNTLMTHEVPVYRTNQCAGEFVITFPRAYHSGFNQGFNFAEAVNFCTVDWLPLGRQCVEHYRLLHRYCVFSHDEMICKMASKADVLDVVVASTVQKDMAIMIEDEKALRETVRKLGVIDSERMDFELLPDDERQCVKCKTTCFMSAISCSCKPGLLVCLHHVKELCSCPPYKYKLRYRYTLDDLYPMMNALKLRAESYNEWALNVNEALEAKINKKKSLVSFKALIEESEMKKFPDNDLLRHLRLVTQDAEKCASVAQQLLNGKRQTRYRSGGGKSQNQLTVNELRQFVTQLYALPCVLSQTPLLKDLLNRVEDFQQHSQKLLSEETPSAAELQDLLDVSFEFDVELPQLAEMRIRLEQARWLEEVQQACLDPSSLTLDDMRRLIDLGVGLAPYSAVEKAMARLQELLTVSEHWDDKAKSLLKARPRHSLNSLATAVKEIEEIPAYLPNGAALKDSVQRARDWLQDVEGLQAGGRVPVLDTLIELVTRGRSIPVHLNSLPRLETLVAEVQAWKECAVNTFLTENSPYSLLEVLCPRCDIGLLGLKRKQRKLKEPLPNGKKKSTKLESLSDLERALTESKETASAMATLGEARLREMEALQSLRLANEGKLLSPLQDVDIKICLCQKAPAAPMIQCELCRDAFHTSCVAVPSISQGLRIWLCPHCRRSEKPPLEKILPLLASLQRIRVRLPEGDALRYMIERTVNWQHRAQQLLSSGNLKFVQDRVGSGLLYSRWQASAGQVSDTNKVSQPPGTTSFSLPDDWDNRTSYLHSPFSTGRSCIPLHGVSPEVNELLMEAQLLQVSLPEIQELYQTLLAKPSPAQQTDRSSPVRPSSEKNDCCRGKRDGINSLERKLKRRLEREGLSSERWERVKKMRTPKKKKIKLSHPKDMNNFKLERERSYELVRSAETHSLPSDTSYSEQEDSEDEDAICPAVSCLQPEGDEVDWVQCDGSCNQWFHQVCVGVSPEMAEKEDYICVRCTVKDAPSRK

| Structure (SMILES) | pIC50 |
| --- | --- |
| CC(C)c1c(-c2ccc(N3CCOCC3)cc2)[nH]c2ncnn2c1=O [Example 11-10, 6-(1-methylethyl)-5-(4-morpholin-4-ylphenyl)[1,2,4]triazolo[1,5-a]pyrimidin-7(4H)-one] | 8.12 |
| CC(C)c1c(-c2ccc3nc[nH]c3c2)[nH]c2ncnn2c1=O [Example 11-70, 5-(1H-benzimidazol-6-yl)-6-(1-methylethyl)[1,2,4]triazolo[1,5-a]pyrimidin-7(4H)-one] | 7.87 |
| CC(C)c1c(-c2csc(-c3ccccc3)n2)[nH]c2ncnn2c1=O [Example 11-136, 6-(1-methylethyl)-5-(2-phenyl-1,3-thiazol-4-yl)[1,2,4]triazolo[1,5-a]pyrimidin-7(4H)-one] | 6.33 |
| CC(C)c1c(-c2cccc(Oc3ccccc3)c2)[nH]c2ncnn2c1=O [Example 11-46, 6-(1-methylethyl)-5-(3-phenoxyphenyl)[1,2,4]triazolo[1,5-a]pyrimidin-7(4H)-one] | 6.52 |
| CC(C)c1c(-c2ccc(-n3nccn3)cc2)[nH]c2ncnn2c1=O [Example 11-97, 6-(1-methylethyl)-5-[4-(2H-1,2,3-triazol-2-yl)phenyl][1,2,4]triazolo[1,5-a]pyrimidin-7(4H)-one] | 7.49 |
| CC(C)(C)c1c(-c2cnn(C(C)(C)C)c2)[nH]c2ncnn2c1=O [Example 11-4, 6-tert-butyl-5-(1-tert-butyl-1H-pyrazol-4-yl)[1,2,4]triazolo[1,5-a]pyrimidin-7(4H)-one] | 6.04 |
| CC(C)c1c(-c2ccc(-c3ccncc3)cc2)[nH]c2ncnn2c1=O [Example 11-88, 6-(1-methylethyl)-5-(4-pyridin-4-ylphenyl)[1,2,4]triazolo[1,5-a]pyrimidin-7(4H)-one] | 8.07 |
| CC(C)c1c(-c2cncc(C(C)(C)O)c2)[nH]c2ncnn2c1=O [Example 11-121, 5-[5-(1-hydroxy-1-methylethyl)pyridin-3-yl]-6-(1-methylethyl)[1,2,4]triazolo[1,5-a]pyrimidin-7(4H)-one] | 7.36 |
| CC(C)c1c(-c2ccc(N3CCCCC3)cc2)[nH]c2ncnn2c1=O [Example 11-41, 6-(1-methylethyl)-5-(4-piperidin-1-ylphenyl)[1,2,4]triazolo[1,5-a]pyrimidin-7(4H)-one] | 7.93 |
| O=c1cc(-c2ccccc2Cl)[nH]c2ncnn12 [Example 8-27, 5-(2-chlorophenyl)[1,2,4]triazolo[1,5-a]pyrimidin-7(4H)-one] | 4.99 |
| CC(C)c1c(-c2ccnc(C(F)(F)F)c2)[nH]c2ncnn2c1=O [Example 11-120, 6-(1-methylethyl)-5-[2-(trifluoromethyl)pyridin-4-yl][1,2,4]triazolo[1,5-a]pyrimidin-7(4H)-one] | 7.77 |
| CC(C)c1c(-c2cnn3ncccc23)[nH]c2ncnn2c1=O [Example 11-72, 6-(1-methylethyl)-5-pyrazolo[1,5-b]pyridazin-3-yl[1,2,4]triazolo[1,5-a]pyrimidin-7(4H)-one] | 7.70 |
| CC(C)(C)c1c(-c2cnn(-c3ccccc3)c2)[nH]c2ncnn2c1=O [Example 11-7, 6-tert-butyl-5-(1-phenyl-1H-pyrazol-4-yl)[1,2,4]triazolo[1,5-a]pyrimidin-7(4H)-one] | 6.11 |
| CC(C)c1c(-c2ccc(CN3CCOCC3)s2)[nH]c2ncnn2c1=O [Example 11-108, 6-(1-methylethyl)-5-[5-(morpholin-4-ylmethyl)thiophen-2-yl][1,2,4]triazolo[1,5-a]pyrimidin-7(4H)-one] | 8.29 |
| O=c1cc(-c2ccc(Cl)cc2)[nH]c2ncnn12 [Example 8-26, 5-(4-chlorophenyl)[1,2,4]triazolo[1,5-a]pyrimidin-7(4H)-one] | 5.86 |
| CC(C)c1c(-c2ccc3cccnc3c2)[nH]c2ncnn2c1=O [Example 11-73, 6-(1-methylethyl)-5-quinolin-7-yl[1,2,4]triazolo[1,5-a]pyrimidin-7(4H)-one] | 7.57 |
| CC(C)c1c(-c2ccc(C(F)(F)F)cc2)[nH]c2ncnn2c1=O [Example 11-84, 6-(1-methylethyl)-5-[4-(trifluoromethyl)-phenyl][1,2,4]triazolo[1,5-a]pyrimidin-7(4H)-one] | 7.17 |

The next lines start with the values.

| pIC50 | Structure (SMILES) |
| --- | --- |
| 8.24 | COCCn1cc(-c2[nH]c3ncnn3c(=O)c2C(C)C)cn1 [Example 11-16, 5-[1-(2-methoxyethyl)-1H-pyrazol-4-yl]-6-(1-methylethyl)[1,2,4]triazolo[1,5-a]pyrimidin-7(4H)-one] |
| 5.66 | Cc1nn(C)c(C)c1-c1[nH]c2ncnn2c(=O)c1C(C)C [Example 11-61, 6-(1-methylethyl)-5-(1,3,5-trimethyl-1H-pyrazol-4-yl)[1,2,4]triazolo[1,5-a]pyrimidin-7(4H)-one] |
| 6.09 | C=C(CCC)c1[nH]c2ncnn2c(=O)c1C(C)C [Example 11-22, 6-(1-methylethyl)-5-(1-methylidene-butyl)[1,2,4]triazolo[1,5-a]pyrimidin-7(4H)-one] |
| 6.26 | Cc1ccc(-c2[nH]c3ncnn3c(=O)c2C(C)C)o1 [Example 11-117, 6-(1-methylethyl)-5-(5-methylfuran-2-yl)[1,2,4]triazolo[1,5-a]pyrimidin-7(4H)-one] |
| 6.99 | CC(C)c1c(-c2cncnc2)[nH]c2ncnn2c1=O [Example 11-26, 6-(1-methylethyl)-5-pyrimidin-5-yl[1,2,4]triazolo[1,5-a]pyrimidin-7(4H)-one] |
| 8.29 | CC(C)c1c(-c2cnn(C(C)C)c2)[nH]c2ncnn2c1=O [Example 11-20, 6-(1-methylethyl)-5-[1-(1-methylethyl)-1H-pyrazol-4-yl][1,2,4]triazolo[1,5-a]pyrimidin-7(4H)-one] |
| 5.17 | CCOC(=O)c1[nH]c2ncnn2c(=O)c1C [Example 8-11, ethyl 6-methyl-7-oxo-4,7-dihydro[1,2,4]triazolo[1,5-a]pyrimidine-5-carboxylate] |
| 7.15 | CC(C)c1c(-c2ccc(Cl)cc2)[nH]c2ncnn2c1=O [Example 11-63, 5-(4-chlorophenyl)-6-(1-methylethyl)[1,2,4]triazolo[1,5-a]pyrimidin-7(4H)-one] |
| 6.30 | CC(C)c1c(C2=CCCN(C)C2)[nH]c2ncnn2c1=O [Example 11-35, 6-(1-methylethyl)-5-(1-methyl-1,2,5,6-tetrahydropyridin-3-yl)[1,2,4]triazolo[1,5-a]pyrimidin-7(4H)-one] |
| 7.36 | CNc1ccc(-c2[nH]c3ncnn3c(=O)c2C(C)C)cc1 [Example 11-104, 5-[4-(methylamino)phenyl]-6-(1-methylethyl)[1,2,4]triazolo[1,5-a]pyrimidin-7(4H)-one] |
| 5.99 | CC(C)c1c(C2=CCC(C)(C)CC2)[nH]c2ncnn2c1=O [Example 11-62, 5-(4,4-dimethylcyclohex-1-en-1-yl)-6-(1-methylethyl)[1,2,4]triazolo[1,5-a]pyrimidin-7(4H)-one] |
| 7.38 | CC(C)c1c(-c2ccc(C(F)(F)F)nc2)[nH]c2ncnn2c1=O [Example 11-132, 6-(1-methylethyl)-5-[6-(trifluoromethyl)pyridin-3-yl][1,2,4]triazolo[1,5-a]pyrimidin-7(4H)-one] |
| 8.28 | CC(C)CCn1cc(-c2[nH]c3ncnn3c(=O)c2C(C)C)cn1 [Example 11-146, 5-[1-(3-methylbutyl)-1H-pyrazol-4-yl]-6-(1-methylethyl)[1,2,4]triazolo[1,5-a]pyrimidin-7(4H)-one] |
| 4.04 | CCc1c(C)[nH]c2nncn2c1=O [Example 8-37, 6-ethyl-7-methyl[1,2,4]triazolo[4,3-a]pyrimidin-5(8H)-one] |
| 7.56 | CC(C)c1c(-c2ccc(N)c(F)c2)[nH]c2ncnn2c1=O [Example 11-119, 5-(4-amino-3-fluorophenyl)-6-(1-methylethyl)[1,2,4]triazolo[1,5-a]pyrimidin-7(4H)-one] |
| 7.35 | CC(C)c1c(-c2ccc(C3CC3)nc2)[nH]c2ncnn2c1=O [Example 11-133, 5-(6-cyclopropylpyridin-3-yl)-6-(1-methylethyl)[1,2,4]triazolo[1,5-a]pyrimidin-7(4H)-one] |
| 7.67 | CC(C)c1c(-c2ccc(C#N)cc2)[nH]c2ncnn2c1=O [Example 11-38, 4-[6-(1-methylethyl)-7-oxo-4,7-dihydro[1,2,4]triazolo[1,5-a]pyrimidin-5-yl]benzonitrile] |
| 6.29 | CCc1c(-c2ccccc2)[nH]c2ncnn2c1=O [Example 8-34, 6-ethyl-5-phenyl[1,2,4]triazolo[1,5-a]pyrimidin-7(4H)-one] |
| 7.43 | CC(C)c1c(-c2ccc(N(C)C)cc2)[nH]c2ncnn2c1=O [Example 11-103, 5-[4-(dimethylamino)phenyl]-6-(1-methylethyl)[1,2,4]triazolo[1,5-a]pyrimidin-7(4H)-one] |
| 8.20 | CCn1cc(-c2[nH]c3ncnn3c(=O)c2C(C)C)cn1 [Example 11-19, 5-(1-ethyl-1H-pyrazol-4-yl)-6-(1-methylethyl)[1,2,4]triazolo[1,5-a]pyrimidin-7(4H)-one] |
